The values that follow come from article PMC8706149 (International Journal of Molecular Sciences, 2021).

Converted amounts (≈) assume the structure as drawn. Where two headings read alike, the source gives them in different places. Marks after values point to notes of the source that are not given here. Bridge positions count the residues as written; N and C are the ends. Square brackets hold non-standard residues; d marks the D form. Peptide text beside a SMILES is read from it. * marks the point of attachment. X1 = CC[C@H](C)CCCCC(=O)*; Dab = NCC[C@H](N)C(=O)O

The nature of data set [1]: Photostability under constant excitation. The format is physicochemical. Particulars: 60 min constant excitation at maximum absorption (Figure S3). The source says: As comparative control, we used the very photostable fluorophore PyMPO [33] by treating PyMPO-(C)GKY20 in the same conditions.
Data set [2] concerns Bacillus globigii TNO BMO13. The experiment in a line: MIC, broth microdilution. It counts as cell-based. Particulars: Bacillus subtilis, TNOBMO13, read-out: MIC (µg/mL) Bacillus globigii TNO BMO13. As for the experimental part:
(§1) All the labeled peptide after purification were lyophilized and dissolved in water. Purity was veri-fi e d by RP-HPLC on C18 column . Pepti de i dentity was assessed by mass spectrometry anal yses (Supplementary Methods, section S4; Table S1).
(§2) S6. Antimicrobial activity assay
(§3) MIC (Minimum Inhibitory Concentration) analyses were performed by broth microdilution method for antimicrobial peptides previously described wi th mi nor modi ficati ons. In detai l s, assays were carried out in Nutrient Broth 0.5x (Difco, Detroit, MI, US A ) usi ng st e r i le 96-well polypropylene mi-croti ter pl ates (cat. 3879, C ostar C orp., C ambri dge, MA , US A ). Bacterial strains were grown in Luria-Bertani (LB) medium overnight at 37°C and then diluted in Nutrient Broth at a final concentration of ~5x10^5 CFU/mL per well. Twofold serial dilutions of peptides were carried out in the test wells […]
(§4) Plates were incubated overnight at 37°C. MIC value was taken as the lowest concentration at which growth was inhibited. Three independent experiments we r e performed for each MIC value. […] MIC values were measured on Gram-negative ( E scherichia coli ATCC 25922) and Gram-po si t i ve st r ains (Sta phyl o co ccus a ure us ATCC 6538P and Bacillus globigii TNO BMO13) . […]
For orientation: In broth dilution the organism is exposed to a series of concentrations in liquid medium.

The subject of data set [3] is Escherichia coli ATCC 25922. The format is cell-based. Particulars: positive control antibiotic; Nutrient Broth 0.5x, overnight 37°C. As for the experimental part:
as §1, §2, §3, §4

For data set [4] the following is noted: cited from earlier work; for pKa of the phenolic group of luciferin: ground state. An excerpt:
Excited states are indicated by an asterisk. (C) Condensation reaction between 6-substituted 2-cyanobenzothiazoles and cysteine (free or as N-terminal residue of a peptide). R1 and R2 can be a wide variety of alkyl and acyl groups.

For “1-[2-(maleimido)ethyl]-4-[5-(4-methoxyphenyl)-2-oxazolyl]pyridinium-labeled GKY20 [PyMPO-(C)GKY20]”, the “loss of initial fluorescence” value in data set [1] stood at 43%. Regarding `CN[C@H](CC(C)C)C(=O)N[C@H]1C(=O)N[C@@H](CC(N)=O)C(=O)N[C@H]2C(=O)N[C@H]3C(=O)N[C@H](C(=O)N[C@H](C(=O)O)c4cc(O)cc(O)c4-c4cc3ccc4O)[C@H](O)c3ccc(c(Cl)c3)Oc3cc2cc(c3O[C@@H]2O[C@H](CO)[C@@H](O)[C@H](O)[C@H]2O[C@H]2C[C@](C)(N)[C@H](O)[C@H](C)O2)Oc2ccc(cc2Cl)[C@H]1O` [Vancomycin, vancomycin], the MIC in data set [2] stood at 2 µg/mL (≈ 1.38 µM). In the case of `CC[C@H](C)CCCCC(=O)N[C@@H](CCN)C(=O)N[C@H](C(=O)N[C@@H](CCN)C(=O)N[C@H]1CCNC(=O)[C@H]([C@@H](C)O)NC(=O)[C@H](CCN)NC(=O)[C@H](CCN)NC(=O)[C@H](CC(C)C)NC(=O)[C@@H](Cc2ccccc2)NC(=O)[C@H](CCN)NC1=O)[C@@H](C)O` [Polymyxin B, polymyxin B] (X1-[Dab]T[Dab][Dab][Dab][dF]L[Dab][Dab]T; lactam 4-C (inferred); N-terminus assumed), the “MIC (µg/mL) Escherichia coli 25922 ATCC” value in data set [3] worked out at 0.5 µg/mL (≈ 0.415 µM). For the compound `O=C(O)[C@H]1CSC(c2nc3ccc(O)cc3s2)=N1` [Free Luc, luciferin], the “pKa of the phenolic group of luciferin” value in data set [4] is given as 8.70 ^b; in data set [4] (listed as LUC-OH) it was 8.7; in data set [4] (listed as Luc), “≈ 8.7”. Also, the “pKa of light-induced dissociation (excited state) of luciferin” value in data set [4] (photoacid, excited state) is on record as less than 1.
